Test results taken from ChEMBL document CHEMBL1201862, “PubChem BioAssay data set” (2004).
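Compound exposure: 48 hours, 5 concentrations, 96-well plates. The concentration for 50% growth inhibition is given as GI50.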 Activity calls are given as the source filed them. Rule as the data show it: active = GI50 up to about 1.1 µM and inactive = higher.

Key:
Assay in all cases: NCI anticancer screen, dose series, 48 h
UACC-62 = tested on: UACC-62
SNB-75 = tested on: SNB-75
OVCAR-3 = tested on: OVCAR-3
UO-31 = tested on: UO-31
SW-620 = tested on: SW-620
KM12 = tested on: KM12
MCF7 = tested on: MCF7
BT-549 = tested on: BT-549
TK-10 = tested on: TK-10
UACC-257 = tested on: UACC-257
PC-3 = tested on: PC-3
Malme-3M = tested on: Malme-3M
OVCAR-5 = tested on: OVCAR-5
RPMI-8226 = tested on: RPMI-8226
NCI-H23 = tested on: NCI-H23
786-0 = tested on: 786-0
MDA-N = tested on: MDA-N
NCI-H226 = tested on: NCI-H226
SF-539 = tested on: SF-539
HL-60 = tested on: HL-60

Row | Structure (SMILES) | GI50 (UACC-62) | GI50 (SNB-75) | GI50 (OVCAR-3) | GI50 (UO-31) | GI50 (SW-620) | GI50 (KM12) | GI50 (MCF7) | GI50 (BT-549) | GI50 (TK-10) | GI50 (UACC-257) | GI50 (PC-3) | GI50 (Malme-3M) | GI50 (OVCAR-5) | GI50 (RPMI-8226) | GI50 (NCI-H23) | GI50 (786-0) | GI50 (MDA-N) | GI50 (NCI-H226) | GI50 (SF-539) | GI50 (HL-60)
1 | CCOC(=O)c1c[nH]c(C(=O)C=[N+]=[N-])c1C1CCN(CC)C1=S (stereo unspecified) | > 100 µM (inactive) | > 100 µM (inactive) | 94 µM (inactive) | > 100 µM (inactive) | > 100 µM (inactive) | > 100 µM (inactive) | > 100 µM (inactive) | > 100 µM (inactive) | > 100 µM (inactive) | > 100 µM (inactive) | > 100 µM (inactive) | > 100 µM (inactive) | > 100 µM (inactive) | > 100 µM (inactive) | 99.8 µM (inactive) | > 100 µM (inactive) | > 100 µM (inactive) |  |  | 
2 | COC(=O)c1cc(C)n(CN(Cc2ccccc2)Cn2nc(C(=O)OC)cc2C)n1 | > 31.9 µM (inactive) | > 27.2 µM (inactive) | > 100 µM (inactive) | > 46.1 µM (inactive) | > 46.9 µM (inactive) | > 100 µM (inactive) | > 66.5 µM (inactive) | > 100 µM (inactive) | > 100 µM (inactive) | > 100 µM (inactive) | > 65.5 µM (inactive) | > 100 µM (inactive) | > 82.2 µM (inactive) | > 41 µM (inactive) | > 100 µM (inactive) | 68.1 µM (inactive) | > 92.5 µM (inactive) | > 100 µM (inactive) | > 45.9 µM (inactive) | 
3 | COc1cc2c(cc1OCCCNC(=O)c1cc3ccccc3[nH]1)N=C[C@@H]1CCCN1C2=O | 0.234 µM (active) | 0.263 µM (active) | 0.306 µM (active) | 0.318 µM (active) | 0.378 µM (active) | 0.241 µM (active) | 0.258 µM (active) | 0.0736 µM (active) | 0.359 µM (active) | 0.448 µM (active) | 0.358 µM (active) |  | 0.352 µM (active) | 0.474 µM (active) | 0.504 µM (active) | 0.237 µM (active) | 0.254 µM (active) | 0.313 µM (active) | 0.24 µM (active) | 
4 | CCOC(=O)C(NC(=O)CC(C)C)(Nc1ccc(S(=O)(=O)Nc2nc(C)cc(C)n2)cc1)C(F)(F)F (stereo unspecified) | > 100 µM (inactive) | 89.9 µM (inactive) | > 100 µM (inactive) | > 100 µM (inactive) | > 100 µM (inactive) | > 100 µM (inactive) |  | > 100 µM (inactive) | > 100 µM (inactive) | > 100 µM (inactive) | > 100 µM (inactive) | > 100 µM (inactive) | > 100 µM (inactive) | > 100 µM (inactive) | > 100 µM (inactive) | > 100 µM (inactive) | > 100 µM (inactive) | > 100 µM (inactive) | > 100 µM (inactive) | > 100 µM (inactive)
5 | O=c1c2nn[nH]c2nc2n1CC(c1ccccc1)S2 (stereo unspecified) | > 100 µM (inactive) | 72.1 µM (inactive) | > 100 µM (inactive) | 45.3 µM (inactive) | > 100 µM (inactive) | > 100 µM (inactive) | > 100 µM (inactive) | > 100 µM (inactive) | > 100 µM (inactive) | > 100 µM (inactive) |  | > 100 µM (inactive) | > 100 µM (inactive) | > 100 µM (inactive) | > 100 µM (inactive) | > 100 µM (inactive) | > 100 µM (inactive) | > 100 µM (inactive) | > 100 µM (inactive) | > 100 µM (inactive)
6 | COC(=O)CCC(NC(=O)C(C)NC(=O)COC1C(O)C(OC(=O)CCNc2c3ccccc3nc3cccc([N+](=O)[O-])c23)OC(OCc2ccccc2)C1NC(C)=O)C(N)=O (stereo unspecified) | 3.08 µM (inactive) | > 10 µM (inactive) | 5.42 µM (inactive) | > 10 µM (inactive) | 0.114 µM (active) | 5.71 µM (inactive) | 2.28 µM (inactive) | > 10 µM (inactive) | > 10 µM (inactive) | > 10 µM (inactive) | > 10 µM (inactive) | 2.22 µM (inactive) | > 10 µM (inactive) |  | > 10 µM (inactive) | 3.56 µM (inactive) | 2.24 µM (inactive) | > 10 µM (inactive) | > 10 µM (inactive) | 
7 | CC(C)(C)[Si](C)(C)OCC1OC(n2ccc(=O)[nH]c2=O)C(O[Si](C)(C)C(C)(C)C)/C1=N/O (stereo unspecified) | 5.96 µM (inactive) | 18.5 µM (inactive) | 8.67 µM (inactive) | 3.61 µM (inactive) | 4.38 µM (inactive) | 3.54 µM (inactive) | 3.47 µM (inactive) | 7.6 µM (inactive) | 6.68 µM (inactive) | 4.17 µM (inactive) | 3.99 µM (inactive) |  | 3.9 µM (inactive) | 2.73 µM (inactive) | 3.44 µM (inactive) | 2.64 µM (inactive) | 4.08 µM (inactive) | 2.82 µM (inactive) | 3.11 µM (inactive) | 
8 | CCNc1cc2oc(=O)cc(C(F)(F)F)c2cc1C | > 100 µM (inactive) | 27 µM (inactive) | > 100 µM (inactive) | > 100 µM (inactive) | > 100 µM (inactive) | > 100 µM (inactive) | > 100 µM (inactive) | > 100 µM (inactive) | > 100 µM (inactive) | > 100 µM (inactive) | > 100 µM (inactive) |  | > 100 µM (inactive) | > 100 µM (inactive) | > 100 µM (inactive) | > 100 µM (inactive) | > 100 µM (inactive) | > 100 µM (inactive) | > 100 µM (inactive) | 
9 | Clc1c(Cl)c(Cl)c2nn(C3CCCO3)nc2c1Cl (stereo unspecified) | 60.3 µM (inactive) |  | 43 µM (inactive) |  |  |  | 46.3 µM (inactive) | 26.8 µM (inactive) | 69.8 µM (inactive) | 72.6 µM (inactive) | 82 µM (inactive) | 39.4 µM (inactive) | > 100 µM (inactive) |  | 37.8 µM (inactive) | 70.3 µM (inactive) | 30.5 µM (inactive) | > 100 µM (inactive) | 86.9 µM (inactive) | 
10 | CCCC(=O)OCC1(CO)C/C(=C/CC(C(C)C)C(C)C)C(=O)O1 (stereo unspecified) | > 100 µM (inactive) | > 100 µM (inactive) | > 100 µM (inactive) | > 100 µM (inactive) | > 100 µM (inactive) | 44.5 µM (inactive) | > 100 µM (inactive) | > 100 µM (inactive) | > 100 µM (inactive) | > 100 µM (inactive) | > 100 µM (inactive) | 64.4 µM (inactive) | > 100 µM (inactive) |  | > 100 µM (inactive) | > 100 µM (inactive) | > 100 µM (inactive) | > 100 µM (inactive) |  | 
11 | COc1ccc(C2=C(Cl)c3cc(OC)c(OC)cc3C2=O)cc1OC | 15.4 µM (inactive) | 61 µM (inactive) | 1.77 µM (inactive) | 16.6 µM (inactive) | 12.7 µM (inactive) | 17.4 µM (inactive) | 13.1 µM (inactive) | 16.1 µM (inactive) | 13 µM (inactive) | 4.28 µM (inactive) |  | 13.2 µM (inactive) | 19.8 µM (inactive) | 18.1 µM (inactive) | 12 µM (inactive) | 3.43 µM (inactive) | 18.5 µM (inactive) | 38.7 µM (inactive) | 21.3 µM (inactive) | 1.8 µM (inactive)
